Laboratory results reported in patent publication US20220348558A1, “INHIBITORS OF ENCEPHALITIC ALPHAVIRUSES” (priority 2019, published 2022).

How the values were obtained:
VEEV TC83 = test: microbe, parasite or virus in culture; format: cell-based; settings: Venezuelan equine encephalitis virus, Vero 76, 48 h, read-out: VEEV TC83 EC50 nM
WEEV California = test: microbe, parasite or virus in culture; format: cell-based; settings: Western equine encephalitis virus, Vero 76, 48 h, read-out: WEEV California EC50 nM

Row | SMILES | EC50 (VEEV TC83) | EC50 (WEEV California)
1 | COc1ccc(-n2c(C3CCCN3)nc3c(-c4ccc(N5CCN(C)CC5)nc4)cc(C#N)cc3c2=O)cc1F (centres unmarked) [Example 132, 3-(3-fluoro-4-methoxyphenyl)-8-(6-(4-methylpiperazin-1-yl)pyridin-3-yl)-4-oxo-2-(pyrrolidin-2-yl)-3,4-dihydroquinazoline-6-carbonitrile] | 1 to 50 nM | 1 to 50 nM
2 | COc1ccc(-n2c([C@H]3CCCN3)nc3cc([N+](=O)[O-])ccc3c2=O)cc1 [Example 48, (R)-3-(4-methoxyphenyl)-7-nitro-2-(pyrrolidin-2-yl)quinazolin-4 (3H)-one] | > 1000 nM | > 1000 nM
3 | COc1ccc(-n2c([C@H]3CCCN3)nc3ccc(C#N)c(F)c3c2=O)cc1 [Example 73, (R)-5-fluoro-3-(4-methoxyphenyl)-4-oxo-2-(pyrrolidin-2-yl)-3,4-dihydroquinazoline-6-carbonitrile] | > 1000 nM | > 1000 nM
4 | COc1ccc(-n2c([C@H]3CCCN3)nc3c(-c4ccc(C)nc4)cc(C#N)cc3c2=O)cc1F [Example 102, (R)-3-(3-fluoro-4-methoxyphenyl)-8-(6-methylpyridin-3-yl)-4-oxo-2-(pyrrolidin-2-yl)-3,4-dihydroquinazoline-6-carbonitrile] | 1 to 50 nM | 1 to 50 nM
5 | Cc1ccc(-c2cc(C#N)cc3c(=O)n(-c4ccc(O)c(F)c4)c([C@H]4CCCN4)nc23)cn1 [Example 167, (R)-3-(3-fluoro-4-hydroxyphenyl)-8-(6-methylpyridin-3-yl)-4-oxo-2-(pyrrolidin-2-yl)-3,4-dihydroquinazoline-6-carbonitrile] | 51 to 150 nM | 151 to 500 nM
6 | COc1ccc(-n2c(C3CCCN3C3CCOCC3)nc3ccc(F)c(F)c3c2=O)cc1 (stereo in doubt) [Example 29, (S)-5,6-difluoro-3-(4-methoxyphenyl)-2-(1-(tetrahydro-2H-pyran-4-yl)pyrrolidin-2-yl) quinazolin-4 (3H)-one] | > 1000 nM | > 1000 nM
7 | COc1ccc(-n2c(-c3cncn3C)nc3c(-c4ccc(C)nc4)cc(C#N)cc3c2=O)cc1F [Example 201, 3-(3-fluoro-4-methoxyphenyl)-2-(1-methyl-1H-imidazol-5-yl)-8-(6-methylpyridin-3-yl)-4-oxo-3,4-dihydroquinazoline-6-carbonitrile] | > 1000 nM | > 1000 nM
8 | CN1CCC(N2CCC[C@@H]2c2nc3ccc([N+](=O)[O-])cc3c(=O)n2-c2ccccc2)CC1 [Example 4, (R)-2-(1-(1-methylpiperidin-4-yl)pyrrolidin-2-yl)-6-nitro-3-phenylquinazolin-4 (3H)-one] | 151 to 500 nM | > 1000 nM
9 | COc1ccc(-n2c([C@]3(C)CCCN3)nc3c(-c4ccc(C)nc4)cc(C#N)cc3c2=O)cc1F [Example 142, (S)-3-(3-fluoro-4-methoxyphenyl)-8-(6-methylpyridin-3-yl)-2-(2-methylpyrrolidin-2-yl)-4-oxo-3,4-dihydroquinazoline-6-carbonitrile] | 1 to 50 nM | 1 to 50 nM
10 | COc1ccc(-n2c([C@H]3CCCN3)nc3c(C)cc(C#N)cc3c2=O)cc1F [Example 52, (R)-3-(3-fluoro-4-methoxyphenyl)-8-methyl-4-oxo-2-(pyrrolidin-2-yl)-3,4-dihydroquinazoline-6-carbonitrile] | 1 to 50 nM | 1 to 50 nM
11 | Cc1cccc(-n2c([C@H]3CCCN3)nc3ccc([N+](=O)[O-])cc3c2=O)c1 [Example 36, (R)-6-nitro-2-(pyrrolidin-2-yl)-3-(m-tolyl)quinazolin-4 (3H)-one] | 51 to 150 nM | 501 to 1000 nM
12 | COc1ccc(-n2c([C@H]3CCCN3)nc3c(F)c(F)c(F)cc3c2=O)cc1 [Example 16, (R)-6,7,8-trifluoro-3-(4-methoxyphenyl)-2-(pyrrolidin-2-yl)quinazolin-4 (3H)-one] | 501 to 1000 nM | > 1000 nM
13 | COc1ccc(-n2c([C@@H]3CCCN3)nc3c(-c4ccncc4)cc(C#N)cc3c2=O)cc1F [Example 110, (S)-3-(3-fluoro-4-methoxyphenyl)-4-oxo-8-(pyridin-4-yl)-2-(pyrrolidin-2-yl)-3,4-dihydroquinazoline-6-carbonitrile] | 1 to 50 nM | 1 to 50 nM
14 | COc1ccc(-n2c(C[C@H]3CCCN3)nc3c(-c4ccc(C)nc4)cc(C#N)cc3c2=O)cc1F [Example 117, (R)-3-(3-fluoro-4-methoxyphenyl)-8-(6-methylpyridin-3-yl)-4-oxo-2-(pyrrolidin-2-ylmethyl)-3,4-dihydroquinazoline-6-carbonitrile] | 151 to 500 nM | 501 to 1000 nM
15 | COc1ccc(-n2c([C@H]3CCCN3)nc3c(Br)cc(C#N)cc3c2=O)cc1F [Example 96, (R)-8-bromo-3-(3-fluoro-4-methoxyphenyl)-4-oxo-2-(pyrrolidin-2-yl)-3,4-dihydroquinazoline-6-carbonitrile] | 1 to 50 nM | 1 to 50 nM
16 | COc1ccc(-n2c(C3CCCN3)nc3c(-c4cnc5ccccc5c4)cc(C#N)cc3c2=O)cc1F (centres unmarked) [Example 123, 3-(3-fluoro-4-methoxyphenyl)-4-oxo-2-(pyrrolidin-2-yl)-8-(quinolin-3-yl)-3,4-dihydroquinazoline-6-carbonitrile] | 1 to 50 nM | 1 to 50 nM

Row | SMILES | EC50 (VEEV TC83) | EC50 (WEEV California)
17 | COc1ccc(-n2c([C@@H]3C[C@@H](F)CN3)nc3c(C)cc([N+](=O)[O-])cc3c2=O)cc1 [Example 63, 2-((2S,4R)-4-fluoropyrrolidin-2-yl)-3-(4-methoxyphenyl)-8-methyl-6-nitroquinazolin-4 (3H)-one] | > 1000 nM | > 1000 nM
18 | COc1ccc(-n2c([C@H]3CCCN3)nc3c(C(F)(F)F)cc(C#N)cc3c2=O)cc1F [Example 76, (R)-3-(3-fluoro-4-methoxyphenyl)-4-oxo-2-(pyrrolidin-2-yl)-8-(trifluoromethyl)-3,4-dihydroquinazoline-6-carbonitrile] | 1 to 50 nM | 1 to 50 nM
19 | N#Cc1cc(-c2ccc(C(F)(F)F)nc2)c2nc([C@H]3CCCN3)n(-c3ccc(O)c(F)c3)c(=O)c2c1 [Example 168, (R)-3-(3-fluoro-4-hydroxyphenyl)-4-oxo-2-(pyrrolidin-2-yl)-8-(6-(trifluoromethyl)pyridin-3-yl)-3,4-dihydroquinazoline-6-carbonitrile] | 51 to 150 nM | 151 to 500 nM
20 | O=c1c2cc([N+](=O)[O-])ccc2nc(C2CCN2)n1-c1ccccc1 (centres unmarked) [Example 27, 2-(azetidin-2-yl)-6-nitro-3-phenylquinazolin-4 (3H)-one] | 501 to 1000 nM | > 1000 nM
21 | COc1ccc(-n2c([C@@H]3CCCN3C)nc3ccc([N+](=O)[O-])cc3c2=O)cc1 [Example 13, (S)-3-(4-methoxyphenyl)-2-(1-methylpyrrolidin-2-yl)-6-nitroquinazolin-4 (3H)-one] | 1 to 50 nM | 51 to 150 nM
22 | COc1ccc(-c2cc(C#N)cc3c(=O)n(-c4ccc(OC)c(F)c4)c(C4CCCN4)nc23)cc1F (centres unmarked) [Example 149, 3,8-Bis(3-fluoro-4-methoxyphenyl)-4-oxo-2-(pyrrolidin-2-yl)-3,4-dihydroquinazoline-6-carbonitrile] | 1 to 50 nM | 1 to 50 nM
23 | COc1ccc(-n2c([C@@H]3CCCN3)nc3c(C(F)(F)F)cc(C#N)cc3c2=O)cc1 [Example 75, (S)-3-(4-methoxyphenyl)-4-oxo-2-(pyrrolidin-2-yl)-8-(trifluoromethyl)-3,4-dihydroquinazoline-6-carbonitrile] | 51 to 150 nM | 51 to 150 nM
24 | COc1ccc(-n2c(-c3cnco3)nc3c(-c4ccc(C)nc4)cc(C#N)cc3c2=O)cc1F [Example 198, 3-(3-fluoro-4-methoxyphenyl)-8-(6-methylpyridin-3-yl)-2-(oxazol-5-yl)-4-oxo-3,4-dihydroquinazoline-6-carbonitrile] | > 1000 nM | > 1000 nM
25 | O=c1c2cc([N+](=O)[O-])ccc2nc([C@H]2CCCN2)n1-c1cccc(OC(F)(F)F)c1 [Example 45, (R)-6-nitro-2-(pyrrolidin-2-yl)-3-(3-(trifluoromethoxy)phenyl)quinazolin-4 (3H)-one] | > 1000 nM | > 1000 nM
26 | COc1c(F)cc(-n2c(C3CCCN3)nc3c(-c4ccc(C#CC(C)(C)O)cc4)cc(C#N)cc3c2=O)cc1F (centres unmarked) [Example 170, 3-(3,5-difluoro-4-methoxyphenyl)-8-(4-(3-hydroxy-3-methylbut-1-yn-1-yl)phenyl)-4-oxo-2-(pyrrolidin-2-yl)-3,4-dihydroquinazoline-6-carbonitrile] | 51 to 150 nM | 51 to 150 nM
27 | COc1ccc(-n2c([C@H]3CCCN3)nc3cc(C)c([N+](=O)[O-])cc3c2=O)cc1 [Example 43, (R)-3-(4-methoxyphenyl)-7-methyl-6-nitro-2-(pyrrolidin-2-yl) quinazolin-4 (3H)-one] | 1 to 50 nM | 1 to 50 nM
28 | O=c1c2cc([N+](=O)[O-])ccc2nc(C2CCCN2)n1-c1ccc(F)cc1 (centres unmarked) [Example 42, 3-(4-fluorophenyl)-6-nitro-2-(pyrrolidin-2-yl)quinazolin-4 (3H)-one] | 51 to 150 nM | 151 to 500 nM
29 | COc1ccc(-n2c([C@@]3(C)CCCN3)nc3c(-c4ccc(C)nc4)cc(C#N)cc3c2=O)cc1F [Example 141, (R)-3-(3-fluoro-4-methoxyphenyl)-8-(6-methylpyridin-3-yl)-2-(2-methylpyrrolidin-2-yl)-4-oxo-3,4-dihydroquinazoline-6-carbonitrile] | 1 to 50 nM | 1 to 50 nM
30 | CNC(C)c1nc2ccc([N+](=O)[O-])cc2c(=O)n1-c1ccc(OC)cc1 (centres unmarked) [Example 205, 3-(4-methoxyphenyl)-2-(1-(methylamino)ethyl)-6-nitroquinazolin-4 (3H)-one] | 51 to 150 nM | 51 to 150 nM
31 | COc1ccc(-n2c([C@@H](C)N(C)C)nc3ccc([N+](=O)[O-])cc3c2=O)cc1 [Example 209, (R)-2-(1-(dimethylamino)ethyl)-3-(4-methoxyphenyl)-6-nitroquinazolin-4 (3H)-one] | 51 to 150 nM | 151 to 500 nM
